According to US20150289512A1, “METHOD FOR PROMOTING PLANT GROWTH” (SUMITOMO CHEMICAL COMPANY, LIMITED, priority 2012, published 2015):

Tests used:
Type in all cases: in vivo
[1] = test system: Rice (variety: Nipponbare); assay: Test Example 3: promotion of root growth by hydroponics of rice, 0.1 ppm; details: Oryza sativa, hydroponic solution containing the test compound at 0.1 ppm, average of 4 or 5 individuals, read-out: Relative value of length of seminal root (%-untreated control plot)
Method in brief: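 Surface-sterilised Nipponbare seeds were germinated 3 days in the dark at 28 °C in ¼-strength Hoagland solution containing 0.1 ppm compound; DMSO-only solution served as control. Seedlings were then grown 3 days hydroponically at 26 °C, 4,000 lux, 16 h day. Seminal root length was measured and averaged over 4–5 plants.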

Nicotiana benthamiana [2] = assay: Test Example 5: growth promotion under low-temperature stress by hydroponics of Nicotiana benthamiana, 1 ppm; details: 1 ppm in medium, low-temperature stress 7 days at 1.5±1.0° C., green leaf area 3 days later, equation (1)
Method in brief: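 Seeds were grown in half-strength Murashige–Skoog medium (pH 5.8) containing 1 ppm compound for 7 days at 22 °C, then chilled 7 days at 1.5±1.0 °C and recovered 3 days at 22 °C. Green leaf area was imaged. Relative leaf area = 100×(treated − untreated)/(unstressed untreated − stressed untreated).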

[3] = test system: Corn seeds (variety: Pioneer 120 31P41); assay: Test Example 14: growth promotion under low-temperature stress by soil drench treatment of corn; details: Zea mays, 120 h, soil drench 20 ml, low-temperature stress 5 days at 2.5° C., health score 0-5, average of 4 individuals, read-out: Relative value of score (%- untreated control plot); for change in vivo at 10 ppm: concentration tested 10 ppm; for change in vivo at 0.3 ppm: concentration tested 0.3 ppm; for change in vivo at 1 ppm: concentration tested 1 ppm
Experimental: Test for Evaluating Growth Promotion Under Low-Temperature Stress by Soil Drench Treatment of Corn
Corn seeds (variety: Pioneer 120 31P41) were seeded in a culture soil (Aisai) in a plastic pot (φ55 mm×height of 58 mm), and cultivated for 7 days at 20-25° C., an illuminance of about 5,000 lux, and a day length of 16 hours.
A DMSO solution, which contained one of the compounds 1 to 9, 16, 17, 20, 23, 24, 28 to 32, 34, 45, 48, 50, 82 and 85 of the present invention at a concentration of 1,000-fold concentration of each test concentration, was prepared, and then diluted with distilled water to obtain each test solution. After that, 20 ml of the obtained test solution was used to perform soil drench treatment on the foot of the test plants. The test plants were cultivated for 2 days under the conditions of a temperature of 27° C., a humidity of 40-80%, an illuminance of about 5,000 lux, and a day length of 16 hours. This was used as a test plot treated with the compound. A plot having undergone the soil drench treatment with 20 ml of a 0.1% DMSO aqueous solution instead of the above DMSO solution containing the compound was used as an untreated control plot.
The plants having undergone the soil drench treatment were cultivated for 5 days under the conditions of a temperature of 2.5° C., a humidity of 40-80%, an illuminance of about 5,000 lux, and a day length of 16 hours, thereby exposing to low-temperature stress. After the exposure to the low-temperature stress, the plants were cultivated for 4 days under the conditions of a temperature of 27° C., a humidity of 40-80%, an illuminance of about 5,000 lux, and a day length of 16 hours.
After the cultivation, the health of each plant was scored according to the following evaluation index.
5: 4 or more leaves in which ⅔ or more of the area was healthy
4: 3 leaves in which ⅔ or more of the area was healthy
3: 2 leaves in which ⅔ or more of the area was healthy
2: 1 leaf in which ⅔ or more of the area was healthy
1: No leaf in which ⅔ or more of the area was healthy
An average of the scores of the health of 4 individuals was determined.

[4] = test system: Rice (variety: Nipponbare); assay: Test Example 1: promotion of root growth by hydroponics of rice, 10 ppm; details: Oryza sativa, hydroponic solution containing the test compound at 10 ppm, average of 4 or 5 individuals, read-out: Relative value of length of seminal root (%-untreated control plot)
Method in brief: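 Surface-sterilised seeds germinated 3 days in the dark at 28° C in hydroponic solution with compound at 10 ppm, then grown 3 days hydroponically with compound at 10 ppm (26° C, 4,000 lux, 16 h day, 50% humidity). Seminal root length measured by image analysis, averaged over 4 or 5 plants per plot.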

Nicotiana benthamiana [5] = assay: Test Example 6: growth promotion under low-temperature stress by hydroponics of Nicotiana benthamiana, 0.1 ppm; details: 0.1 ppm in medium, low-temperature stress 7 days at 1.5±1.0° C., green leaf area 3 days later, equation (1)
Experimental: Test for Evaluating Growth Promotion Under Low-Temperature Stress by Hydroponics of Nicotiana benthamiana
A DMSO solution, which contained one of the compounds 3, 7, 14, 16, 36, 39, 43, 45, 50, 52, 53, 54, 56, 57, 62, 63, 64, 65, 68, 69, 70, 71, 73, 74, 76, 77, 79, 80, 81, 84, 85, 86 and 87 of the present invention at a concentration of 100 ppm, was prepared. The DMSO solution of the compound of the present invention was added at a volume ratio of 1/1,000 to the Murashige•Scoog medium of a ½-fold concentration for the Murashige•Scoog medium (a medium containing 2.3 g of mixed salts (manufactured by Wako Pure Chemical Industries, Ltd.), 200 mg of Myo-inositol (manufactured by Sigma-Aldrich Co. LLC.), 2 mg of nicotinic acid (manufactured by Wako Pure Chemical Industries, Ltd.), 2 mg of pyridoxine hydrochloride (manufactured by Wako Pure Chemical Industries, Ltd.), 20 mg of thiamine hydrochloride (manufactured by Wako Pure Chemical Industries, Ltd.), 20 g of sucrose (manufactured by Wako Pure Chemical Industries, Ltd.), and 1 g of MES (manufactured by DOJINDO LABORATORIES) per 1 L of water and having pH adjusted to 5.8), thereby preparing a medium containing the compound of the present invention at a concentration of 0.1 ppm.
Seeds of Nicotiana benthamiana were seeded in the 5 μL of the medium and cultured overnight at 22° C. Thereafter, 45 μL of the medium containing the compound of the present invention at a concentration of 0.1 ppm was added thereto, and the seeds are cultivated for 7 days at 22° C., an illuminance of 4,000 lux, and a day length of 16 hours, and the nursery plants raised from the Nicotiana benthamiana were treated with the compound. Moreover, instead of the above medium a test plot, which was obtained by performing the same treatment by using a medium prepared by adding DMSO to the Murashige•Scoog medium of ½-fold concentration at a volume ratio of 1/1,000, was used as a control plot not treated with the compound.
The nursery plants of the Nicotiana benthamiana treated with the compound were subjected to low-temperature treatment by being cultivated for 7 days at 1.5±1.0° C., an illuminance of 2,000 lux, and a day length of 16 hours.
The nursery plants of the Nicotiana benthamiana having undergone the low-temperature stress treatment were cultivated for 3 days at 22° C., an illuminance of 4,000 lux, and a day length of 16 hours. Thereafter, the area of green leaf was quantified by Scanalyzer HTS (manufactured by LemnaTec GmbH). Moreover, the value of the control plot not treated with the compound that had not yet been subjected to the low-temperature stress treatment was measured in the same manner. A value of a relative leaf area was calculated based on the following equation (1), and if the value of a relative leaf area was 5 or greater, the compound was evaluated to have a mitigating effect. As a result of the evaluation, it was confirmed that when the plant was treated with one of the compounds 3, 7, 14, 16, 36, 39, 43, 45, 50, 52, 53, 54, 56, 57, 62, 63, 64, 65, 68, 69, 70, 71, 73, 74, 76, 77, 79, 80, 81, 84, 85, 86 and 87 of the present invention at 0.1 ppm, the value of a relative leaf area was 5 or greater, compared to the area of green leaf of the control plot not treated with compound. Accordingly, it was confirmed that the treatment using the compound of the present invention brings about a growth promotion effect.
Relative leaf area=100*(a green area of a plot treated with the compound of the present invention−a green area of a control plot not treated with the compound of the present invention)/(a green area of a control plot not treated with the compound of the present invention that has not yet been subjected to low-temperature stress treatment−green area of a control plot not treated with the compound of the present invention) Equation (1): […]

## O=C(O)c1cc2cc(C(F)(F)F)ccc2o1 [Compound 2, 5-trifluoromethylbenzofuran-2-carboxylic acid]
[1]
  change in vivo at 0.1 ppm: > 5%
Nicotiana benthamiana [2]
  relative leaf area (% of untreated control) at 1 ppm: ≥ 5%
[3]
  change in vivo at 10 ppm: > 5%

## CCOC(=O)c1cc2cc(C(F)(F)F)ccc2o1 [Compound 4, ethyl 5-trifluorometethylbenzofuran-2-carboxylate]
Nicotiana benthamiana [2]
  relative leaf area (% of untreated control) at 1 ppm: ≥ 5%
[3]
  change in vivo at 10 ppm: > 5%
[4]
  change in vivo at 10 ppm: > 5%

## O=C(O)c1nc2cc(C(F)(F)F)ccc2[nH]1 [Compound 20, 5-(trifluoromethyl)-benzimidazole-2-carboxylic acid]
[1]
  change in vivo at 0.1 ppm: > 5%
Nicotiana benthamiana [2]
  relative leaf area (% of untreated control) at 1 ppm: ≥ 5%
[3]
  change in vivo at 0.3 ppm: > 5%

## COc1ccc(NC(=O)c2cc3cc(C(F)(F)F)ccc3o2)c(OC)c1 [Compound 5, N-(2,4-dimethoxyphenyl)-5-trifluoromethylbenzofuran-2-carboxamide]
Nicotiana benthamiana [2]
  relative leaf area (% of untreated control) at 1 ppm: ≥ 5%
[3]
  change in vivo at 0.3 ppm: > 5%
[4]
  change in vivo at 10 ppm: > 5%

## COC(=O)c1nc2ccccc2o1 [Compound 16, methyl benzoxazole-2-carboxylate]
[1]
  change in vivo at 0.1 ppm: > 5%
[3]
  change in vivo at 1 ppm: > 5%
Nicotiana benthamiana [5]
  relative leaf area (% of untreated control) at 0.1 ppm: ≥ 5%

## O=C(O)c1cc2cc(C(F)(F)F)ccc2[nH]1 [Compound 7, 5-trifluoromethylindole-2-carboxylic acid]
[1]
  change in vivo at 0.1 ppm: > 5%
[3]
  change in vivo at 1 ppm: > 5%
Nicotiana benthamiana [5]
  relative leaf area (% of untreated control) at 0.1 ppm: ≥ 5%
